Data: patent US8431596B2 (Cancer Research Technology Limited, priority 2007, dated 2013)

Molecular target: T1, AXL (human catalytic domain) (Homo sapiens, UniProt P30530)
T1 construct: purchased Upstate Ltd. 14-512
T1 sequence (P30530 473-894): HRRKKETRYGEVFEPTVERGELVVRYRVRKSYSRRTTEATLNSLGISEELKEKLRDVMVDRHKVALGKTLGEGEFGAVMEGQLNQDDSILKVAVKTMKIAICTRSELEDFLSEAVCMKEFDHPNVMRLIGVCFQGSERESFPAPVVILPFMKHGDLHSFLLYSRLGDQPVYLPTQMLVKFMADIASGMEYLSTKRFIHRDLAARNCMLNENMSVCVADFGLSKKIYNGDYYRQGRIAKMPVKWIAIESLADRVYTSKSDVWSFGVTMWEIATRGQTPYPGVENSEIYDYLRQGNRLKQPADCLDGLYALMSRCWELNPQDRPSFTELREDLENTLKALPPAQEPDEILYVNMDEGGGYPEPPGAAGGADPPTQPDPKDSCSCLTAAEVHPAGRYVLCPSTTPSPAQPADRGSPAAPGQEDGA
Test: AXL (human catalytic domain) Enzyme Activity Assay (IMAP fluorescence polarisation)
Assay type: biochemical
Procedure: Biological Methods AXL (human catalytic domain) Enzyme Activity Assay Reagents
Kinase Assay Reaction Buffer: This consisted of 20 mM HEPES pH 7.0, 10 mM MgCl2, 1 mM DTT, […], 0.01% Triton X100 (v/v), and 0.01% BSA (w/v). All buffer components were purchased from Sigma-Aldrich at reagent grade or higher.
Kinase: Recombinant AXL isoform 1 (aa473-894 corresponding to Genbank Accession Number NP 068713) at 2 mg/mL (20.8 μM) was purchased from Upstate Ltd. (Product code 14-512, lot #28164U). The enzyme was stored at −80° C. and a working stock was prepared to a concentration of 30 nM by diluting 20.8 μM stock 1:693 in cold (4° C.) 1× Reaction Buffer. Final enzyme concentration in the assay was 15 nM.
Substrate: Fluorescein labelled CSK-tide 5FAM-[…]-NH2 was obtained from Molecular Devices (Product code R7270) and used at a working concentration of 200 nM by diluting the 100 μM stock 1:500 in 1× Reaction Buffer in a mix with the enzyme. A negative control (lacking enzyme) was prepared at the same concentrations. Final substrate concentration in the assay was 100 nM.
ATP: Supplied by Sigma (product code A-7699). A 100 mM ATP stock was prepared in […] and used at a working concentration of 375 μM by diluting the 100 mM stock 1:266.6 in Reaction Buffer. Final ATP concentration in the assay was 150 μM; this concentration represents the KM.ATP for this enzyme calculated in this assay.
IMAP Reagents: IMAP screening express kit was obtained from Molecular Devices (product code R8127). The binding reagent was gently re-suspended before diluting by 1:1000 in buffer (Binding Buffer is supplied as a 5× stock and so was diluted with water prior to use—this assay used 40% buffer A and 60% buffer B) and then vortexed before addition to wells. The binding reagent was used at a final dilution of 1:1333.
1 μL samples of test compounds in 10% DMSO/water were added to “test” wells by dry-spotting using a Matrix Platemate Plus. 5 μL Kinase/Substrate in Reaction Buffer were added to columns 1-22 of a Corning black low binding 384 well #6754 (90 μL volume) microplate to give 12 nM and 100 nM reaction concentration respectively. 5 μL substrate in Reaction Buffer was added to columns 23 and 24 to give 100 nM reaction concentration. 4 μL ATP in Reaction Buffer was added to all wells to give 150 μM reaction concentration. The reaction mixture was then incubated at room temperature for 60 minutes. The incubation period was followed by the addition of 20 μL IMAP Binding Reagent in Binding Buffer to all wells. The IMAP reaction detection was further incubated at room temperature overnight. The FP on a Tecan Ultra Plate reader was recorded as a single read at Ex485 Em535.
Percentage inhibition was calculated based on activity of the test sample minus the average values in the blank wells relative to the average values measured in control wells minus the average values in the blank wells.
IC50 values were calculated from 10 point dose sigmoid ‘dose-response’ curves using XIfit software (IDBS Inc, USA). Data were fitted to a 4 parameter logistic model/sigmoidal dose response defined by the following equation:
[formula] where: • A=fit minimum (locked to 0); • B=fit maximum (locked to 100); • C=fit midpoint (pre-fit to 1); and • D=slope at linear portion of curve, hillslope (pre-fit to 0.1).
The value for C represents the IC50 of the test compound.

[1] = first data set, recombinant AXL isoform 1 aa473-894, 150 μM ATP
[2] = further data set (WW-001 through WW-169, XX-001 through XX-469, YY-001 through YY-016, ZZ-001 through ZZ-003), 150 μM ATP

Compound | IC50 [1] [nM] | IC50 [2] [nM]
O=C(Nc1nc2cccc(-c3ccc(-n4cccn4)cc3)n2n1)C1CC1 [WW-109] | 1000 to 10000 | 1000 to 10000
CC(C)(C)OC(=O)Nc1ccc(-c2cccc3nc(NC(=O)C4CC4)nn23)cc1 [WW-110] | 1000 to 10000 | 1000 to 10000
CC(Nc1cccc2nc(NC(=O)C3CC3)nn12)c1ccccc1 (stereo not drawn) [WW-113] | 1000 to 10000 | 1000 to 10000
CN(C(=O)OC(C)(C)C)c1ccc(-c2cccc3nc(NC(=O)C4CC4)nn23)cc1 [WW-119, {4-[2-(cyclopropanecarbonyl-amino)-[1,2,4]triazolo[1,5-a]pyridin-5-yl]-phenyl}-methyl-carbamic acid tert-butyl ester] | 1000 to 10000 | 1000 to 10000
CNc1ccc(-c2cccc3nc(NC(=O)C4CC4)nn23)cc1 [WW-120, Cyclopropanecarboxylic acid [5-(4-methylamino-phenyl)-[1,2,4]triazolo[1,5-a]pyridin-2-yl]-amide] | 1000 to 10000 | 1000 to 10000
O=C(Nc1nc2cccc(-c3ccc(OCC4CC4)cc3)n2n1)C1CC1 [WW-121] | 1000 to 10000 | 1000 to 10000
C#CCOc1ccc(-c2cccc3nc(NC(=O)C4CC4)nn23)cc1 [WW-122] | 1000 to 10000 | 1000 to 10000
COc1cccc(COc2ccc(-c3cccc4nc(NC(=O)C5CC5)nn34)cc2)c1 [WW-123, Cyclopropanecarboxylic acid {5-[4-(3-methoxy-benzyloxy)-phenyl]-[1,2,4]triazolo[1,5-a]pyridin-2-yl}-amide] | 1000 to 10000 | 1000 to 10000
CCCn1cc(-c2cccc3nc(NC(=O)C4CC4)nn23)cn1 [WW-124, Cyclopropanecarboxylic acid [5-(1-propyl-1H-pyrazol-4-yl)-[1,2,4]triazolo[1,5-a]pyridin-2-yl]-amide] | 1000 to 10000 | 1000 to 10000
COc1ccc(-c2cccc3nc(NC(=O)C4CC4(F)F)nn23)cc1 (stereo not drawn) [WW-125] | 1000 to 10000 | 1000 to 10000
COc1ccc(Nc2cccc3nc(NC(=O)C4CC4)nn23)cc1 [WW-127, Cyclopropanecarboxylic acid [5-(4-methoxy-phenylamino)-[1,2,4]triazolo[1,5-a]pyridin-2-yl]-amide] | 1000 to 10000 | 1000 to 10000
O=C(Nc1nc2cccc(Nc3ccccc3Cl)n2n1)C1CC1 [WW-128] | 1000 to 10000 | 1000 to 10000
O=C(Nc1nc2cccc(Nc3cccc(Cl)c3)n2n1)C1CC1 [WW-129] | 1000 to 10000 | 1000 to 10000
O=C(Nc1nc2cccc(-c3ccc4occc4c3)n2n1)C1CC1 [WW-133] | < 1000 | 100 to 1000
CC(C)CCn1cc(-c2cccc3nc(NC(=O)C4CC4)nn23)cn1 [WW-135] | 1000 to 10000 | 1000 to 10000
CSc1ccc(-c2cccc3nc(NC(=O)C4CC4)nn23)cc1 [WW-136] | 1000 to 10000 | 1000 to 10000
O=C(Nc1nc2cccc(-c3cccc(-n4cccn4)c3)n2n1)C1CC1 [WW-137] | 1000 to 10000 | 1000 to 10000
CC(C)(C)c1ccc(-c2cccc3nc(NC(=O)C4CC4)nn23)cc1 [WW-139] | 1000 to 10000 | 1000 to 10000
O=C(Nc1nc2cccc(-c3ccc4c(c3)OCCCO4)n2n1)C1CC1 [WW-144] | 1000 to 10000 | 1000 to 10000
CCS(=O)(=O)n1cc(-c2cccc3nc(NC(=O)C4CC4)nn23)cn1 [WW-147, Cyclopropanecarboxylic acid [5-(1-ethanesulfonyl-1H-pyrazol-4-yl)-[1,2,4]triazolo[1,5-a]pyridin-2-yl]-amide] | 1000 to 10000 | 1000 to 10000
Cc1c(-c2cccc3nc(NC(=O)C4CC4)nn23)cnn1-c1ccccc1 [WW-148] | 1000 to 10000 | 1000 to 10000

Compound | IC50 [1] [nM] | IC50 [2] [nM]
O=C(Nc1nc2cccc(-c3cc[nH]c3)n2n1)C1CC1 [WW-149] | 1000 to 10000 | 1000 to 10000
CC(C)Oc1ccc(-c2cccc3nc(NC(=O)C4CC4)nn23)cc1 [WW-150] | 1000 to 10000 | 1000 to 10000
O=C(Nc1nc2cccc(-c3ccc(N4CCNCC4)cc3)n2n1)C1CC1 [WW-151, Cyclopropanecarboxylic acid [5-(4-piperazin-1-yl-phenyl)-[1,2,4]triazolo[1,5-a]pyridin-2-yl]-amide] | 1000 to 10000 | 1000 to 10000
CC(C)Oc1cccc(-c2cccc3nc(NC(=O)C4CC4)nn23)c1 [WW-152] | 1000 to 10000 | 1000 to 10000
CCN(CC)CCNc1ccc(-c2cccc3nc(NC(=O)C4CC4)nn23)cc1 [WW-153, Cyclopropanecarboxylic acid {5-[4-(2-diethylamino-ethylamino)-phenyl]-[1,2,4]triazolo[1,5-a]pyridin-2-yl}-amide] | 1000 to 10000 | 1000 to 10000
NCC(=O)Nc1ccc(-c2cccc3nc(NC(=O)C4CC4)nn23)cc1 [WW-155, Cyclopropanecarboxylic acid {5-[4-(2-amino-acetylamino)-phenyl]-[1,2,4]triazolo[1,5-a]pyridin-2-yl}-amide] | 1000 to 10000 | 1000 to 10000
O=C(Nc1nc2cccc(-c3ccc(NS(=O)(=O)c4ccccc4)cc3)n2n1)C1CC1 [WW-156] | 1000 to 10000 | 1000 to 10000
NCCCNc1ccc(-c2cccc3nc(NC(=O)C4CC4)nn23)cc1 [WW-157] | 1000 to 10000 | 1000 to 10000
NCCNc1ccc(-c2cccc3nc(NC(=O)C4CC4)nn23)cc1 [WW-158, Cyclopropanecarboxylic acid {5-[4-(2-amino-ethylamino)-phenyl]-[1,2,4]triazolo[1,5-a]pyridin-2-yl}-amide] | 1000 to 10000 | 1000 to 10000
O=C(Nc1nc2cccc(-c3ccc4c(c3)CCO4)n2n1)C1CC1 [WW-159] | < 1000 | 100 to 1000
COc1cccc(Nc2cccc3nc(NC(=O)C4CC4)nn23)c1 [WW-160] | 1000 to 10000 | 1000 to 10000
COc1cc(Nc2cccc3nc(NC(=O)C4CC4)nn23)cc(OC)c1OC [WW-161] | 1000 to 10000 | 1000 to 10000
O=C(Nc1nc2cccc(-c3ccc(Oc4ccccc4)cc3)n2n1)C1CC1 [WW-162] | 1000 to 10000 | 1000 to 10000
COc1ccc(CNc2cccc3nc(NC(=O)C4CC4)nn23)cc1 [WW-167] | 1000 to 10000 | 1000 to 10000
CN1CCN(CCC(=O)Nc2nc3cccc(-c4ccc5c(c4)OCCO5)n3n2)CC1 [WW-169] | – | 1000 to 10000
COc1cc(Nc2nc3cccc(-c4ccc5c(c4)OCCO5)n3n2)ccc1OCCN1CCCC1 [XX-001] | < 1000 | ≤ 100
CN(C)CCNC(=O)c1cccc(Nc2nc3cccc(-c4ccc5c(c4)OCO5)n3n2)c1 [XX-002] | < 1000 | 100 to 1000
COc1ccc(-c2cccc3nc(NCC4CC4)nn23)cc1 [XX-003, Cyclopropylmethyl-[5-(4-methoxy-phenyl)-[1,2,4]triazolo[1,5-a]pyridin-2-yl]-amine] | 1000 to 10000 | 100 to 1000
COc1ccc(-c2cccc3nc(Nc4ccc(OCCN5CCCC5)cc4)nn23)cc1 [XX-004] | < 1000 | 1000 to 10000
COc1ccc(-c2cccc3nc(Nc4ccc(OCCN5CCOCC5)cc4)nn23)cc1 [XX-005] | < 1000 | ≤ 100
